For orientation: Ki means a dissociation constant, usually derived from enzyme kinetics or from competition with a known ligand. A lower Ki goes with tighter binding.

Bounds are passed on as bounds.

Chain of GHS-R (Q92847 whole entry, species assumed): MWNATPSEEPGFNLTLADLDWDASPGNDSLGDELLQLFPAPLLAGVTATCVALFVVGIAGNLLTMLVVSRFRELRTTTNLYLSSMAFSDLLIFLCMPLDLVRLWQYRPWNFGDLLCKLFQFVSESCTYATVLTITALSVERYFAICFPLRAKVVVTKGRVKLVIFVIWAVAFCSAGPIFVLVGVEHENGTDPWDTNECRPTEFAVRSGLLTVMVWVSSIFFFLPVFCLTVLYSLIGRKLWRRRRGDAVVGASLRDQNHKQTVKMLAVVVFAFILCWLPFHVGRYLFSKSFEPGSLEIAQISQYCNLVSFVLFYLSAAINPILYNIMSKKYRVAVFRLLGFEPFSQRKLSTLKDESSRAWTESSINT

The test has as its target GHS-R (Homo sapiens, UniProt Q92847). Put plainly: GHS-R antagonist activity (Ki) in a cell based assay. Summed up:
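Transfected COS-7 cells were labelled 24 h with [^3H]-myo-inositol and preincubated 30 min at 37 °C in HEPES buffer pH 7.4 with 10 mM LiCl, optionally with 1 U/ml adenosine deaminase. Compound was applied for 45 min at 37 °C. [^3H]-inositol phosphates were extracted with perchloric acid and isolated by anion-exchange resin.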
For `CCN(CC)CCCS(=O)(=O)N[C@H](CCc1ccccc1)c1nc(-c2ccc(F)c(C#N)c2)n[nH]1` [Compound 128, 3-Diethylamino-propane-1-sulfonic acid {(R)-1-[5-(3-cyano-4-fluoro-phenyl)-2H-[1,2,4]triazol-3-yl]-3-phenyl-propyl}-amide], the inhibition constant (Ki) was < 100 nM. As for `CCN(CC)CCCS(=O)(=O)N[C@H](CCc1ccccc1)c1nc(-c2ccc3sccc3c2)n[nH]1` [Compound 129, 3-Diethylamino-propane-1-sulfonic acid [(R)-1-(5-benzo[b]thiophen-5-yl-2H-[1,2,4]triazol-3-yl)-3-phenyl-propyl]-amide], the Ki is < 100 nM. Under `CCN(CC)CCCS(=O)(=O)N[C@H](CCc1ccccc1)c1nc(-c2ccc3occc3c2)n[nH]1` [Compound 130, 3-Diethylamino-propane-1-sulfonic acid [(R)-1-(5-benzofuran-5-yl-2H-[1,2,4]triazol-3-yl)-3-phenyl-propyl]-amide] stands < 100 nM; under `CCN(CC)CCCS(=O)(=O)N[C@H](CCc1ccccc1)c1nc(-c2cn(C)cn2)n[nH]1` [Compound 131, 3-Diethylamino-propane-1-sulfonic acid {(R)-1-[5-(1-methyl-1H-imidazol-4-yl)-2H-[1,2,4]triazol-3-yl]-3-phenyl-propyl}-amide], < 100 nM; under `CCN(CC)CCCS(=O)(=O)N[C@H](CCc1ccccc1)c1nc(Cc2cc(F)cc(F)c2)n[nH]1` [Compound 132, 3-Diethylamino-propane-1-sulfonic acid {(R)-1-[5-(3,5-difluoro-benzyl)-2H-[1,2,4]triazol-3-yl]-3-phenyl-propyl}-amide], < 100 nM. To `CCN(CC)CCCS(=O)(=O)N[C@H](CCc1ccccc1)c1nc(Cc2nc(C)cs2)n[nH]1` [Compound 133, 3-Diethylamino-propane-1-sulfonic acid {(R)-1-[5-(4-methyl-3H-1lambda*4*-thiazol-2-ylmethyl)-2H-[1,2,4]triazol-3-yl]-3-phenyl-propyl}-amide] belongs < 100 nM. To `CCN(CC)CCCS(=O)(=O)N[C@H](CCc1ccccc1)c1nc(-c2ccc3nccn3c2)n[nH]1` [Compound 134, 3-Diethylamino-propane-1-sulfonic acid {(R)-1-[5-(1H-imidazo[1,2,-a]pyridin-6-yl)-2H-[1,2,4]triazol-3-yl]-3-phenyl-propyl}-amide] belongs 100 to 500 nM; to `CCN(CC)CCCS(=O)(=O)N[C@H](CCc1ccccc1)c1nc(-c2cncn2C)n[nH]1` [Compound 135], < 100 nM. For the compound `CCN(CC)CCCS(=O)(=O)N[C@H](CCc1ccccc1)c1nc(C2CNc3ccccc3O2)n[nH]1` (stereo partly drawn) [Compound 136, 3-Diethylamino-propane-1-sulfonic acid {(R)-1-[5-(3,4-dihydro-2H-benzo[1,4]oxazin-2-yl)-2H-[1,2,4]triazol-3-yl]-3-phenyl-propyl}-amide], the Ki is < 100 nM.

As to `CCN(CC)CCCS(=O)(=O)N[C@H](CCc1ccccc1)c1nc(-c2csc(C)n2)n[nH]1` [Compound 137, 3-Diethylamino-propane-1-sulfonic acid {(R)-1-[5-(2-methyl-thiazol-4-yl)-2H-[1,2,4]triazol-3-yl]-3-phenyl-propyl}-amide], the inhibitory constant (Ki) is < 100 nM. Turning to `CCN(CC)CCCS(=O)(=O)N[C@H](CCc1ccccc1)c1nc(-c2ccc(OC)nc2)n[nH]1` [Compound 138, 3-Diethylamino-propane-1-sulfonic acid {(R)-1-[5-(6-methoxy-pyridin-3-yl)-2H-[1,2,4]triazol-3-yl]-3-phenyl-propyl}-amide], the inhibition constant (Ki) was < 100 nM.

For `CCN(CC)CCCS(=O)(=O)N[C@H](CCc1ccccc1)c1nc(C2CCCCC2)n[nH]1` [Compound 139, 3-Diethylamino-propane-1-sulfonic acid [(R)-1-(5-cyclohexyl-2H-[1,2,4]triazol-3-yl)-3-phenyl-propyl]-amide], the Ki was < 100 nM.

Values taken from patent US7829589B2, “Sulfonamide compounds and uses thereof” (Elixir Pharmaceuticals, Inc., priority 2005, dated 2010).
